The results in this text go back to publication PMC3940203, “Elements in nucleotide sensing and hydrolysis of the AAA+ disaggregation machine ClpB: a structure-based mechanistic dissection of a molecular motor” (Acta Crystallographica Section D: Biological Crystallography, 2014).

The target of assay [1] is T1, ClpB NBD2 (Thermus thermophilus, UniProt Q9RA63, R806A). The assay is described as follows: stopped-flow FRET, displacement and competition with MANT-dADP, global fit; Kd = koff/kon. Particulars: 50 mM Tris-HCl pH 7.5, 200 mM KCl, 5 mM MgCl2, 2 mM EDTA, 25 °C; read-out: Nucleotide binding / K d. The source says:
(§1) stopped-flow FRET, displacement and competition with MANT-dADP, global fit; Kd = koff/kon on ClpB NBD2

Assay [2] addresses T2, ClpB NBD2 (Thermus thermophilus, UniProt Q9RA63, R621Q). Described as above. Conditions: 50 mM Tris-HCl pH 7.5, 200 mM KCl, 5 mM MgCl2, 2 mM EDTA, 25 °C; read-out: Nucleotide binding / K d.
Description: as §1

The target in assay [3] is T3, ClpB NBD2 (Thermus thermophilus, UniProt Q9RA63).
T3 sequence (Q9RA63 520-854): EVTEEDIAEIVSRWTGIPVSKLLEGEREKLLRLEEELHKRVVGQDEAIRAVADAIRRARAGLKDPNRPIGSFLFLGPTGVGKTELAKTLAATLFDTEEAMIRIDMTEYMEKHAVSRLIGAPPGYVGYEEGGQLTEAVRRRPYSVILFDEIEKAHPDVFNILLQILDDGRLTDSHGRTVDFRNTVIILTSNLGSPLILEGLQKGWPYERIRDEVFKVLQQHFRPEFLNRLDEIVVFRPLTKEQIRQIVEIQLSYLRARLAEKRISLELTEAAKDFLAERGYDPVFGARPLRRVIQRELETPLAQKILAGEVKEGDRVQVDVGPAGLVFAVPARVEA
The assay is described as follows: X-ray crystal structure, […] Å. The class given is binding. Conditions: co-crystal with 2 mM ADP, pH 7.0; nucleotide site of NBD2, no Mg2+ bound.

For assay [4], the target named is T4, ClpB NBD2 (Thermus thermophilus, UniProt Q9RA63, N709A). The experiment in a line: stopped-flow FRET, displacement and competition with MANT-dADP, global fit; Kd = koff/kon. It counts as binding. Particulars: 50 mM Tris-HCl pH 7.5, 200 mM KCl, 5 mM MgCl2, 2 mM EDTA, 25 °C.
T4 sequence (Q9RA63 520-854 N709A): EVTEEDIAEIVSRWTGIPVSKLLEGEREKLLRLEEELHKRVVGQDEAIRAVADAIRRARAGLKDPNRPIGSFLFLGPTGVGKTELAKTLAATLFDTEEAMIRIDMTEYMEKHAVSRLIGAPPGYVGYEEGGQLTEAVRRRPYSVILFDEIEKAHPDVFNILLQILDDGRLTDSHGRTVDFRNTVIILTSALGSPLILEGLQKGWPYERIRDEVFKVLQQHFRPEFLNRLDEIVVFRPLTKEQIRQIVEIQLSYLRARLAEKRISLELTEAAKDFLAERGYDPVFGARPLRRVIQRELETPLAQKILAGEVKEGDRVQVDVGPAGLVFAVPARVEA
Description: as §1

In assay [5] the target is T3, ClpB NBD2. The experiment in a line: X-ray crystal structure, […] Å. Particulars: co-crystal with 2 mM AMPPCP, pH 7.0; nucleotide site of NBD2, no Mg2+ bound. It counts as binding.
Assay [6] deals with T4, ClpB NBD2. The experiment in a line: stopped-flow FRET, competition and displacement with MANT-dADP, global fit; Kd = koff/kon. Particulars: 50 mM Tris-HCl pH 7.5, 200 mM KCl, 5 mM MgCl2, 2 mM EDTA, 25 °C; ATP-regenerating system (pyruvate kinase, phosphoenolpyruvate); read-out: Nucleotide binding / K d. From the text:
(§2) stopped-flow FRET, competition and displacement with MANT-dADP, global fit; Kd = koff/kon on ClpB NBD2

Assay [7] has as its target T1, ClpB NBD2. The description is as above. Conditions: 50 mM Tris-HCl pH 7.5, 200 mM KCl, 5 mM MgCl2, 2 mM EDTA, 25 °C; ATP-regenerating system (pyruvate kinase, phosphoenolpyruvate); read-out: Nucleotide binding / K d.
Description: as §2

Assay [8] deals with T2, ClpB NBD2. The description is as above. Conditions: 50 mM Tris-HCl pH 7.5, 200 mM KCl, 5 mM MgCl2, 2 mM EDTA, 25 °C; ATP-regenerating system (pyruvate kinase, phosphoenolpyruvate); read-out: Nucleotide binding / K d.
Description: as §2

Assay [9] concerns the target T4, ClpB NBD2. The experiment in a line: stopped-flow FRET, direct mixing and displacement, global fit; Kd = koff/kon. Particulars: 50 mM Tris-HCl pH 7.5, 200 mM KCl, 5 mM MgCl2, 2 mM EDTA, 25 °C; labelled compound. It counts as binding. The source says: (§3) stopped-flow FRET, direct mixing and displacement, global fit; Kd = koff/kon on ClpB NBD2
Assay [10] concerns the target T1, ClpB NBD2. Described as above. It counts as binding. Conditions: 50 mM Tris-HCl pH 7.5, 200 mM KCl, 5 mM MgCl2, 2 mM EDTA, 25 °C; labelled compound.
Description: as §3

Assay [11] addresses T2, ClpB NBD2. The description is as above. Particulars: 50 mM Tris-HCl pH 7.5, 200 mM KCl, 5 mM MgCl2, 2 mM EDTA, 25 °C; labelled compound. It counts as binding.
Description: as §3

Each structure is given as a SMILES string.

T1 sequence (Q9RA63 520-854 R806A): as the sequence (Q9RA63 520-854 N709A) above, with A190N, R287A counted along it
T2 sequence (Q9RA63 520-854 R621Q): as the sequence (Q9RA63 520-854 N709A) above, with R102Q, A190N counted along it

In the case of `Nc1ncnc2c1ncn2[C@@H]1O[C@H](COP(=O)(O)OP(=O)(O)O)[C@@H](O)[C@H]1O` [ADP], the Kd in [1] amounted to 3.8 ± 0.06 µM; in assay [2], 1.5 ± 0.02 µM. Besides, the “X-ray crystal structure, 2.4 Å” value in [3] is recorded as “Wild-type ClpB NBD2 in complex with ADP, PDB entry 4lj5”. Further, in assay [4], the “Nucleotide binding / K d (μM)” value is listed as 0.43 ± 8 × 10^−3 µM.
For the compound `Nc1ncnc2c1ncn2[C@@H]1O[C@H](COP(=O)(O)OP(=O)(O)CP(=O)(O)O)[C@@H](O)[C@H]1O` [AMPPCP], in [5], the “X-ray crystal structure, 1.9 Å” value was “Wild-type ClpB NBD2 in complex with AMPPCP, PDB entry 4lj6”.
As to `Nc1ncnc2c1ncn2[C@@H]1O[C@H](COP(=O)(O)OP(=O)(O)OP(=O)(O)O)[C@@H](O)[C@H]1O` [ATP], the Kd in [6] stood at 74 ± 3 µM; in assay [7], 84 ± 4 µM; in assay [8], 55 ± 2 µM.
In the case of `CNc1ccccc1C(=O)O[C@H]1C[C@H](n2cnc3c(N)ncnc32)O[C@@H]1COP(=O)(O)OP(=O)(O)O` [MANT-dADP], the figures for the “Nucleotide binding / K d (μM)” value in assay [9], in [10] and in [11] were 0.0024 ± 3 × 10^−5 µM, 0.027 ± 1 × 10^−4 µM and 0.0068 ± 8 × 10^−5 µM, respectively.
For `CNc1ccccc1C(=O)O[C@H]1C[C@H](n2cnc3c(N)ncnc32)O[C@@H]1COP(=O)(O)OP(=O)(O)OP(=O)(O)O` [MANT-dATP], the “Nucleotide binding / K d (μM)” value in [10] is reported as 0.29 ± 2 × 10^−3 µM.
